According to patent US8586565B2, “Kinase inhibitors useful for the treatment of myleoproliferative diseases and other proliferative diseases” (Deciphera Pharmaceuticals, LLC, priority 2006, dated 2013):

Assays:
[1] = biological target: T1, Abl kinase (Seq. ID no. 1) (Homo sapiens, UniProt P00519); assay: Abl kinase (u-Abl) spectrophotometric coupled kinase assay; format: biochemical; details: for IC50: unphosphorylated-Abl kinase, 2 h preincubation, ATP 500 μM
T1 construct: His6 with TEV cleavage site ([…] leader) (N); purchased deCode Genetics
T1 sequence (P00519 with tags, fused parts or gaps): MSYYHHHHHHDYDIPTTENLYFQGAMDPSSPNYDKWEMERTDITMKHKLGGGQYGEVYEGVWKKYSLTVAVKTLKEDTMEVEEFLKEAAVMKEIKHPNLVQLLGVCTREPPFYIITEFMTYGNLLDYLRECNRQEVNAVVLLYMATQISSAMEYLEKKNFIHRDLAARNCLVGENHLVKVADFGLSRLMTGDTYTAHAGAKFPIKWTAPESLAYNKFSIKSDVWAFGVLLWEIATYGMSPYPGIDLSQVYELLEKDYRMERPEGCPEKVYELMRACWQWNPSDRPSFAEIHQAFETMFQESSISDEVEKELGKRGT
Description: Abl kinase (Seq. […] Activity of Abl kinase (Seq. […] Science (2000) 289, 1938-1942). In this assay, the oxidation of NADH (thus the decrease at A340 nm) was continuously monitored spectrophometrically. […] Test compounds were incubated with Abl kinase (Seq. […] The absorption at 340 nm was monitored continuously for 2 hours at 30° C. on Polarstar Optima plate reader (BMG). The reaction rate was calculated using the 1.0 to 2.0 h time frame. Percent inhibition was obtained by comparison of reaction rate with that of a control (i.e. with no test compound). IC50 values were calculated from a series of percent inhibition values determined at a range of inhibitor concentrations using software routines as implemented in the GraphPad Prism software package.

[2] = biological target: T2, Abl(T315I) (Seq. ID no. 2) kinase (Homo sapiens, UniProt P00519, T315I); assay: Abl(T315I) kinase spectrophotometric coupled kinase assay; format: biochemical; details: for IC50: T315I mutant Abl kinase, 2 h preincubation, ATP 500 μM
T2 construct: His6 with TEV cleavage site ([…] leader) (N); purchased decode Genetics
T2 sequence (P00519 with tags, fused parts or gaps T315I): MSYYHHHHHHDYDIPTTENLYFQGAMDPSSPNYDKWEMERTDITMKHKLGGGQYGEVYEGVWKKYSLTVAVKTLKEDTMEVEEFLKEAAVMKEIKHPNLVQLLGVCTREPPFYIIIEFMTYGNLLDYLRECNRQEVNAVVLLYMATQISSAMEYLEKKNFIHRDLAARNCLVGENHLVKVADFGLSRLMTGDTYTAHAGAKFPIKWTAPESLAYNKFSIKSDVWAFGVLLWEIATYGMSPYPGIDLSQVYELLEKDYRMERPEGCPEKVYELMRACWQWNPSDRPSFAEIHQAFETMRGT
Description: Science (2000) 289, 1938-1942). In this assay, the oxidation of NADH (thus the decrease at A340nm) was continuously monitored spectrophometrically. […] (SEQ. […] The absorption at 340 nm was monitored continuously for 2 hours at 30° C. on Polarstar Optima plate reader (BMG). The reaction rate was calculated using the 1.0 to 2.0 h time frame. Percent inhibition was obtained by comparison of reaction rate with that of a control (i.e. with no test compound). IC50 values were calculated from a series of percent inhibition values determined at a range of inhibitor concentrations using software routines as implemented in the GraphPad Prism software package.

[3] = biological target: T3, pAbl kinase (Seq. ID no. 1) (Homo sapiens, UniProt P00519); assay: pAbl kinase spectrophotometric coupled kinase assay; format: biochemical; details: for IC50: phosphorylated-Abl kinase, 2 h preincubation, ATP 500 μM, read-out: p-Abl IC50
T3 construct: His6 with TEV cleavage site ([…] leader) (N); purchased deCode Genetics
T3 sequence (P00519 with tags, fused parts or gaps): T1 sequence (P00519 with tags, fused parts or gaps)
Description: pAbl Kinase Assay Activity of pAbl kinase (Seq. […] Science (2000) 289, 1938-1942). In this assay, the oxidation of NADH (thus the decrease at […]) was continuously monitored spectrophometrically. […] Test compounds were incubated with pAbl (SEQ. […] The absorption at 340 nm was monitored continuously for 2 hours at 30° C. on Polarstar Optima plate reader (BMG). The reaction rate was calculated using the 1.0 to 2.0 h time frame. Percent inhibition was obtained by comparison of reaction rate with that of a control (i.e. with no test compound). IC50 values were calculated from a series of percent inhibition values determined at a range of inhibitor concentrations using software routines as implemented in the GraphPad Prism software package. pAbl was obtained as a phosphorylated form of the enzyme used in the Abl assay (see above).

[4] = tested on: BaF3 cells transfected with bcr-Abl point mutant E255K; assay: Cell proliferation assay, BaF3 E255K bcr-abl; format: cell-based; details: Mus musculus, 72 hours, Cell Titer Blue
Description: (§1) Briefly, cells were grown in RPMI 1640 supplemented with 10% characterized fetal bovine serum (HyClone, Logan, Utah) at 37 degrees Celsius, 5% CO2, 95% humidity. Cells were allowed to expand until reaching 80% saturation at which point they were subcultured or harvested for assay use.
(§2) A serial dilution of test compound was dispensed into a 96 well black clear bottom plate (Corning, Corning, N.Y.). For each cell line, three thousand cells were added per well in complete growth medium. Plates were incubated for 72 hours at 37 degrees Celsius, 5% CO2, 95% humidity. At the end of the incubation period Cell Titer Blue (Promega, Madison, Wis.) was added to each well and an additional 4.5 hour incubation at 37 degrees Celsius, 5% CO2, 95% humidity was performed. Plates were then read on a BMG Fluostar Optima (BMG, Durham, N.C.) using an excitation of 544 nm and an emission of 612 nm. Data was analyzed using Prism software (Graphpad, San Diego, Calif.) to calculate IC50's.

[5] = tested on: BaF3 cells transfected with bcr-Abl point mutant M351T; assay: Cell proliferation assay, BaF3 M351T bcr-abl; format: cell-based; details: Mus musculus, 72 hours, Cell Titer Blue
Description: as §1, §2

[6] = tested on: BaF3 cells transfected with bcr-Abl point mutant T315I; assay: Cell proliferation assay, BaF3 T315I bcr-abl; format: cell-based; details: Mus musculus, 72 hours, Cell Titer Blue
Description: as §1, §2

[7] = tested on: BaF3 cells transfected with bcr-Abl point mutant Y253F; assay: Cell proliferation assay, BaF3 Y253F bcr-abl; format: cell-based; details: Mus musculus, 72 hours, Cell Titer Blue
Description: as §1, §2

[8] = tested on: BaF3 cells transfected with wild type bcr-Abl; assay: Cell proliferation assay, BaF3 wt bcr-abl; format: cell-based; details: Mus musculus, 72 hours, Cell Titer Blue
Description: as §1, §2

Compound | times more potent vs. u-Abl kinase than Compound C ([1]; relative to unsubstituted (R16=H) Compound C) | IC50 [1] | IC50 [2] | times more potent vs. T315I mutant Abl kinase than Compound C ([2]; relative to Compound C) | IC50 [3] | times more potent vs. p-Abl kinase than Compound C ([3]; relative to Compound C) | IC50 [4] | IC50 [5] | IC50 [6] | times more potent vs. p-Abl kinase than Compound A ([3]; relative to unsubstituted (R16=H) Compound A) | IC50 [7] | IC50 [8] | times more potent vs. u-Abl kinase than Compound B ([1]; relative to unsubstituted (R16=H) Compound B) | times more potent vs. T315I mutant Abl kinase than Compound B ([2]; relative to Compound B) | times more potent vs. p-Abl kinase than Compound B ([3]; relative to Compound B)
CNC(=O)c1cc(Oc2ccc(NC(=O)Nc3cc(C(C)(C)C)nn3-c3ccc4[nH]ncc4c3)c(F)c2)ccn1 [Example 4, 1-(3-tert-butyl-1-(1H-indazol-5-yl)-1H-pyrazol-5-yl)-3-(2-fluoro-4-(2-(methylcarbamoyl)pyridin-4-yloxy)phenyl)urea] | 2.2 times | 0.7 nM | 12 nM | 13 times | 20 nM | 18 times |  |  |  |  |  |  |  |  | 
CNC(=O)c1cc(Oc2ccc(NC(=O)Nc3cc(C(C)(C)C)nn3-c3ccc4ncccc4c3)cc2C)ccn1 [Example 5, 1-(3-tert-butyl-1-(quinolin-6-yl)-1H-pyrazol-5-yl)-3-(3-methyl-4-(2-(methylcarbamoyl)pyridin-4-yloxy)phenyl)urea] |  | 0.7 nM | 250 nM |  | 6 nM |  | 62 nM | 10 nM | 25 nM | 4 times | 15 nM | 8 nM |  |  | 
CC(C)c1cc(NC(=O)Nc2ccc(Oc3ccnc(C(N)=O)c3)cc2F)n(-c2ccc3ncccc3c2)n1 [Example 15, 1-(4-(2-carbamoylpyridin-4-yloxy)-2-fluorophenyl)-3-(3-isopropyl-1-(quinolin-6-yl)-1H-pyrazol-5-yl)urea] |  | 1 nM | 56 nM |  | 35 nM |  | 238 nM | 13 nM | 25 nM |  | 86 nM | 11 nM | 8 times | 18 times | > 14 times
